Non-standard residues stand in square brackets, D forms with d. No end group written: not given here. Cit = NC(=O)NCCC[C@H](N)C(=O)O
Legend:
C57Bl/6 mice = experiment: Glucose tolerance test in fasted C57Bl/6 mice after single IP peptide injection; type: in vivo, mouse; conditions: single IP 300 mg/kg, 2 g/kg glucose IP
Protocol: Peptide may additionally be screened for the ability to lower glucose using methods illustrated in the EXAMPLES section, e.g., Example 31. For example, the ability to lower glucose can be evaluated using ing animal models, such as mice or rats. Mice, e.g., C57Bl/6 mice, fed a normal lab chow diet are injected IP with a peptide that is undergoing evaluation, e.g., at a does of 300 mg/kg, and the glucose levels in the blood are measured at a time period, e.g. 6 hours, following injection and compared to the levels of blood glucose in a control animal that received PBS. Alternatively, peptides may be screened for the ability to lower glucose as illustrated in Example 36. For example, 300 mg/kg peptide injected IP into to fasted animals and 3 h thereafter a glucose tolerance test is performed by injecting 2 g/kg glucose during which the glucose concentration is followed for 120 minutes. Peptides that have glucose lowering activity show statistically significant lowered glucose relative to controls. Typically, peptides lower glucose by at least 5%, often at least 10% or greater, relative to controls. Peptides may also be evaluated for glucose-lowering activity in animal models of obesity, e.g., DIO mice. Further, peptides may be evaluated for the ability to improve sensitivity to insulin, e.g., as described in Example 31 of the EXAMPLES section.
This example illustrates that CS6253 and T6991-2 lower blood glucose concentrations upon glucose challenge in C57Bl/6 mice (FIG. 51). Fasted male C57Bl/6 mice on chow diet received a single intraperitonel (IP) injection of either vehicle alone or 300 mg/kg of lipid-free peptide, as described for safety studies in FIG. 5. Following treatment, a glucose tolerance test was performed via IP injection of 2 g/kg glucose. Blood was collected from the tail vein at the indicated times and blood glucose measured using a glucometer. Panels A and B— Blood glucose concentrations expressed as mass values over time following glucose challenge, with corresponding area under the curve, respectively. (Bar graph, panel B, bars from left to right are PBS, CS6253, T699102, 2, 4, 5, 6, and 9, respectively) Values are means±SD, n=4 mice per group.

ABCA1 = target: T1, ABCA1 (Mus musculus, UniProt P41233); experiment: ABCA1 protein stabilization in J774 macrophages (Western blot); type: cell-based; conditions: J774 after cAMP, 6 h chase
T1 construct: treated (18 h) with a cAMP analog to induce ABCA1 protein expression; endogenous in cells; host or cells: J774 macrophages
T1 sequence (P41233 whole entry): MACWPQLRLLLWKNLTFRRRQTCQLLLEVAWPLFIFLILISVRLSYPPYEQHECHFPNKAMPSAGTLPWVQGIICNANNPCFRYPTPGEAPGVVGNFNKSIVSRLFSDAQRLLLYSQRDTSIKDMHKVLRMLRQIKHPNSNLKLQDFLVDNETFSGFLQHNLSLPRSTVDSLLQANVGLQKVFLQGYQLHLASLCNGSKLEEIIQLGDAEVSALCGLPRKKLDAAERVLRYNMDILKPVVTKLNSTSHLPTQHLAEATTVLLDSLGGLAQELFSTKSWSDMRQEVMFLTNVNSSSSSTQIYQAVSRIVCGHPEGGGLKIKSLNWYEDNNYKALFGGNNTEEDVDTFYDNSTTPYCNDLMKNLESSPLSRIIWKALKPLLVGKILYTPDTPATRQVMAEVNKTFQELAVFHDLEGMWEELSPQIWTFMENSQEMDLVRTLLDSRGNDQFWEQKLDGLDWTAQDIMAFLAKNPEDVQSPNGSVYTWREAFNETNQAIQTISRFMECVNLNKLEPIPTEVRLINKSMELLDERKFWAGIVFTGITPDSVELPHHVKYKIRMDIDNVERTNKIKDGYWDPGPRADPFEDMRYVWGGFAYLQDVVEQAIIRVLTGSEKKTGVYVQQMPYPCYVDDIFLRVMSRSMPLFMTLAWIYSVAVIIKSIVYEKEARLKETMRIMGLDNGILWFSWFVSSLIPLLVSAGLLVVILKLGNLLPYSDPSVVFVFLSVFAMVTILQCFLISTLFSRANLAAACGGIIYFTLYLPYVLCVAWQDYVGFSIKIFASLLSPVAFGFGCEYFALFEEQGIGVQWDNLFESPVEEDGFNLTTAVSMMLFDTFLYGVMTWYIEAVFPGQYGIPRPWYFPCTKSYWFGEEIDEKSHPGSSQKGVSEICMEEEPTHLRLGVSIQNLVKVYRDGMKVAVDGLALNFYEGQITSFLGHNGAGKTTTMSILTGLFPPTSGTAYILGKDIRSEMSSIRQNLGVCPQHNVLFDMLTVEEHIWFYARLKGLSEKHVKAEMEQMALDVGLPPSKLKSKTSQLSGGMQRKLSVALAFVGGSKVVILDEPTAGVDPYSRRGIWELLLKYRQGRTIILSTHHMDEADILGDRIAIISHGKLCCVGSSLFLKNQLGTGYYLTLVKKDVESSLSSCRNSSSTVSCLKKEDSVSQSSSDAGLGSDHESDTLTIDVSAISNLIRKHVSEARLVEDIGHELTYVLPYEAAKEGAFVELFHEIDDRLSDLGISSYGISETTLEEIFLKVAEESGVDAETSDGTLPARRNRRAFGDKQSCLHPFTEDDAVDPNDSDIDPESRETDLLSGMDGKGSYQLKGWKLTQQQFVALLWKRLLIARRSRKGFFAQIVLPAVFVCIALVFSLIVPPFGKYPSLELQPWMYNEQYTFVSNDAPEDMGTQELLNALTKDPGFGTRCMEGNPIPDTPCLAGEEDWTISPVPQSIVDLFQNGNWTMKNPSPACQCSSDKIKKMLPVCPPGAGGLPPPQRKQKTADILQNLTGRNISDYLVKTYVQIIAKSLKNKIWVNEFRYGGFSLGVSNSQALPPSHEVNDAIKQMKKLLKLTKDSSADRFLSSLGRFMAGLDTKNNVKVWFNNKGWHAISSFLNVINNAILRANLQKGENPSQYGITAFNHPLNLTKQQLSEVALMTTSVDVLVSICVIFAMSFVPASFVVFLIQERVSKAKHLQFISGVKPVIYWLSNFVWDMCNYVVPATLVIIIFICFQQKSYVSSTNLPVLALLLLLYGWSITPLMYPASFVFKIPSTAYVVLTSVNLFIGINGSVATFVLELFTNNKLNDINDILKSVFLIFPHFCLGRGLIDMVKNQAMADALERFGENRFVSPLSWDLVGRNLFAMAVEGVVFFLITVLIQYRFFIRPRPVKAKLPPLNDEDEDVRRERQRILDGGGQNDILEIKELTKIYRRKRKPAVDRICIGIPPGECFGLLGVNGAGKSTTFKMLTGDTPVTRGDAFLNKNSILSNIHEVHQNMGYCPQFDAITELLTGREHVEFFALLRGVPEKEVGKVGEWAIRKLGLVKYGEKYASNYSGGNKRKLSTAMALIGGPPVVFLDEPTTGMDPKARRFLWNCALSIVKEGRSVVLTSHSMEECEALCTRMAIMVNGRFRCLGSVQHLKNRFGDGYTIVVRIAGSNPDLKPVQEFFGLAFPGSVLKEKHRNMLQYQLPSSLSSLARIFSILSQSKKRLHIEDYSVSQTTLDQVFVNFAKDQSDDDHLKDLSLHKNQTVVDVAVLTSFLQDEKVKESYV
Protocol: In some embodiments, the stabilization of ABCA is measured by direct measurement of ABCA (e.g., ABCA protein, or nucleic acid) using a cell based assay. Cell based assays can be performed in any cells in which ABCA is expressed (e.g., J774 macrophages), including cells which have been transfected with ABCA (e.g. HeLa cells). Any cell type can be used. For example, J774 macrophages can be used to assess relative ABCA1 protein levels in the presence and absence of polypeptides of the invention. The cells are first contacted with a compound that will induce ABCA (e.g., cAMP or a cAMP analogue such as, 8-bromo-cAMP) to upregulate ABCA (e.g., ABCA1) expression, then exposed to […] polypeptides of the invention in the absence of the cAMP stimulus to evaluate whether ABCA1 protein was stabilized or degraded. Relative levels of ABCA1 protein can be assessed using any means known in the art including, e.g., immunoblot analysis of cell membranes (Oram et al., J. Biol. Chem., 278:52379-52385 (2003)) or hybridization of nucleic acid probes to ABCA mRNA.
(FIG. 29). J774 macrophages were used for experiments. Panel A—Cells were labeled (48 h) with 3H cholesterol and treated with (right bars) and without (left bars) a cAMP analog to modulate ABCA1 expression. […]

T8212-2: CS6253 analog with combination of leucine and isoleucine residues (L→I) (EV[Cit]SKLEEWLAAI[Cit]ELAEELLARLKS) [Peptide T8212-2]
blood glucose upon glucose challenge (C57Bl/6 mice): poorly active in lowering blood glucose responses

T8212-4: CS6253 analog with combination of leucine and isoleucine residues (L→I) (EV[Cit]SKLEEWIAAL[Cit]ELAEEILARLKS) [Peptide T8212-4]
blood glucose upon glucose challenge (C57Bl/6 mice): poorly active in lowering blood glucose responses

T8212-5: CS6253 analog with combination of leucine and isoleucine residues (L→I) (EV[Cit]SKIEEWIAAL[Cit]ELAEEILARLKS) [Peptide T8212-5]
blood glucose upon glucose challenge (C57Bl/6 mice): poorly active in lowering blood glucose responses

T8212-6: CS6253 analog with combination of leucine and isoleucine residues (L→I) (EV[Cit]SKIEEWLAAI[Cit]EIAEELLARLKS) [Peptide T8212-6]
blood glucose upon glucose challenge (C57Bl/6 mice): poorly active in lowering blood glucose responses

T8212-9: CS6253 analog with combination of leucine and isoleucine residues (L→I) (EV[Cit]SKIEEWIAAI[Cit]EIAEEIIARLKS) [Peptide T8212-9]
blood glucose upon glucose challenge (C57Bl/6 mice): poorly active in lowering blood glucose responses

apoA-I: full-length native apolipoprotein A-I, lipid-free
ABCA1 protein level (stabilization) (ABCA1): maintained at high-levels

Source: patent US11434267B2, “Peptides having reduced toxicity that stimulate cholesterol efflux” (The Regents of the University of California, priority 2013, dated 2022)
